Legend:
[1] = molecular target: T1, TRPV4 channel receptors (Homo sapiens, UniProt Q9HBA0); assay: Ca2+ influx, Fura-2 fluorescence on FlexStation, human articular chondrocytes; type: cell-based
T1 construct: obtained using this method in human articular chondrocytes; endogenous in cells; host or cells: human articular chondrocytes
Source text: (§1) Ca^2+ influx mediated through TRPV4 channel receptors can be measured using articular chondrocytes from such species as, but not limited to, human, rat, canine, rabbit, monkey, and bovine, using standard techniques in the art such as, but not limited to, Fura-2 (Invitrogen/Molecular Probes, Eugene, Oreg.) fluorescence using a FlexStation (manufactured by Molecular Devices, Sunnyvale, Calif.). Table 1 lists biological data for several representative compounds obtained using this method in bovine articular chondrocytes.
Table 2 lists biological data for several representative compounds obtained using this method in human articular chondrocytes.

[2] = molecular target: T2, TRPV4 channel receptors (Bos taurus, UniProt A0A8F4X677); assay: Ca2+ influx, Fura-2 fluorescence on FlexStation, bovine articular chondrocytes; type: cell-based
T2 construct: obtained using this method in bovine articular chondrocytes; endogenous in cells; host or cells: bovine articular chondrocytes
T2 sequence (A0A8F4X677 1-871): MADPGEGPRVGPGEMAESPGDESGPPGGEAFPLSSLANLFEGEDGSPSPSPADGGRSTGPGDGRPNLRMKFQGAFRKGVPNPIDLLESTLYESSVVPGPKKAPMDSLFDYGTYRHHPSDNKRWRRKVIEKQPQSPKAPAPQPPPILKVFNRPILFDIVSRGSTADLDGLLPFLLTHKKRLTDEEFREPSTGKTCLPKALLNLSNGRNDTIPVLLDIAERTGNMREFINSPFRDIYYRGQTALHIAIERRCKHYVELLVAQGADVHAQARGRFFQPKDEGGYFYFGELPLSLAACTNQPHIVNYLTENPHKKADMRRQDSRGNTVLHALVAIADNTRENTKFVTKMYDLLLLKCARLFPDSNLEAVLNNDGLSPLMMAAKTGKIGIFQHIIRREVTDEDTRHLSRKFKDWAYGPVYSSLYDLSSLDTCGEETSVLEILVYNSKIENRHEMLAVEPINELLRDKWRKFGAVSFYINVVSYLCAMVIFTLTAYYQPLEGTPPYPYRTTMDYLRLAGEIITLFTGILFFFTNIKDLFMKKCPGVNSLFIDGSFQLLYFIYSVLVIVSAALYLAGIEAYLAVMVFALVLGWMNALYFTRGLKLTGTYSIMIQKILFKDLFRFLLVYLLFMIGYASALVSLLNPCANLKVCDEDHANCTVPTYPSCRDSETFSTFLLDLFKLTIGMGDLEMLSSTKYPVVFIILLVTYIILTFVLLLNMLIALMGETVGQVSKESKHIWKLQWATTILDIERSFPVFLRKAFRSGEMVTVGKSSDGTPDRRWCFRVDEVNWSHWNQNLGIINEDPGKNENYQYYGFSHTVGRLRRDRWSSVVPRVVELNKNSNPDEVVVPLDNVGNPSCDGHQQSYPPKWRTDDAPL
Source text: as §1

T1 sequence (Q9HBA0 whole entry): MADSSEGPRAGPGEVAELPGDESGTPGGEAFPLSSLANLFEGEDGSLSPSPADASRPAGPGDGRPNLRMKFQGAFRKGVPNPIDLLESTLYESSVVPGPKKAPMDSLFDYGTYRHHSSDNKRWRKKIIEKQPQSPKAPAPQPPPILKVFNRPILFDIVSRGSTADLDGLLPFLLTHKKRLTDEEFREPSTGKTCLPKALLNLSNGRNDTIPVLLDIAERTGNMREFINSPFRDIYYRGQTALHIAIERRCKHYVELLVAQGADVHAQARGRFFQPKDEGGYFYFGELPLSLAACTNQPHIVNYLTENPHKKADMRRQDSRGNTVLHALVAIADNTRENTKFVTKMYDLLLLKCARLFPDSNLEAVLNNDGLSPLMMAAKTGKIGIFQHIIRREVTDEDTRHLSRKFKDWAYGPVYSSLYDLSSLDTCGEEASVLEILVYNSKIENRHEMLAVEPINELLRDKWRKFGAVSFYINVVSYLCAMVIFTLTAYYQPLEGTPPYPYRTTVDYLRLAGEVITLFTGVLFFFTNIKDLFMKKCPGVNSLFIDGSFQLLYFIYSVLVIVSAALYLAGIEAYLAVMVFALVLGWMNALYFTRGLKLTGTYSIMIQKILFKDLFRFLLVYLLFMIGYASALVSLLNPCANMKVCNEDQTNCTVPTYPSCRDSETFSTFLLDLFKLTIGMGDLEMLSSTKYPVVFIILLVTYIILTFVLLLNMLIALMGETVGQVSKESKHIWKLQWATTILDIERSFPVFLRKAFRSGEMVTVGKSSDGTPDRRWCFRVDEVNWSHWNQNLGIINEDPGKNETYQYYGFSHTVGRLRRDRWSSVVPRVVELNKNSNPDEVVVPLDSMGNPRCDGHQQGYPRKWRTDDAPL

EC50 [1]	EC50 [2]	Structure (SMILES)
0.1 to 1 µM	0.07 to 0.1 µM	CC(C)C[C@H](NC(=O)c1cc2ccccc2s1)C(=O)NC[C@@H]1CN(S(=O)(=O)c2ccc(F)cc2Cl)C[C@@H]1O (single isomer, unassigned) [Example 2]
1 to 10 µM		CC(C)C[C@H](NC(=O)c1cc2ccccc2s1)C(=O)NC[C@@H]1CN(S(=O)(=O)c2ccc(F)cc2C(F)(F)F)C[C@@H]1O (single isomer, unassigned) [Example 6]
0.03 to 0.09 µM	0.03 to 0.06 µM	CC(C)C[C@H](NC(=O)c1cc2ccccc2s1)C(=O)NC[C@H]1CN(S(=O)(=O)c2ccc(Cl)cc2Cl)C[C@H]1O (single isomer, unassigned) [Example 3]
